Measured values as given in publication PMC12358834, “Structural basis for anaerobic alkane activation by a multisubunit glycyl radical enzyme” (Proceedings of the National Academy of Sciences of the …, 2025).

Tests used:
[1] = molecular target: T1, MASS; (1-methylalkyl)succinate synthase; MASSα2βγ2δ complex (Azoarcus sp. HxN1, UniProt A9J4K4); experiment: cryo-EM structure of the complex, […] Å; assay type: binding; settings: active site of MASSα (αβγδ side); anaerobic; no alkane present; DTT modelled in hydrocarbon site; no glycyl radical activation described
T1 construct: gene masD; full-length subunits co-expressed in E. coli NiCo21(DE3); N-terminal His tag on MASSα; asymmetric alpha2-beta-gamma2-delta complex; [4Fe-4S] in beta and gamma, single Fe in delta; with (1-methylalkyl)succinate synthase beta subunit; (1-methylalkyl)succinate synthase gamma subunit; (1-methylalkyl)succinate synthase delta subunit (rubredoxin-like)

[2] = molecular target: (1-methylalkyl)succinate synthase catalytic α-subunit (MASSα), protein product of masD (Azoarcus sp. strain HxN1); experiment: cryo-EM structure; single-particle cryo-EM of the co-expressed, purified MASS complex (SEC fractions with dimeric MASSα), grids prepared anaerobically, 0.8 mg/mL, fumarate and DTT bound; 2.8 Å map (a first data set gave 7 Å)

T1 sequence (A9J4K4 1-839): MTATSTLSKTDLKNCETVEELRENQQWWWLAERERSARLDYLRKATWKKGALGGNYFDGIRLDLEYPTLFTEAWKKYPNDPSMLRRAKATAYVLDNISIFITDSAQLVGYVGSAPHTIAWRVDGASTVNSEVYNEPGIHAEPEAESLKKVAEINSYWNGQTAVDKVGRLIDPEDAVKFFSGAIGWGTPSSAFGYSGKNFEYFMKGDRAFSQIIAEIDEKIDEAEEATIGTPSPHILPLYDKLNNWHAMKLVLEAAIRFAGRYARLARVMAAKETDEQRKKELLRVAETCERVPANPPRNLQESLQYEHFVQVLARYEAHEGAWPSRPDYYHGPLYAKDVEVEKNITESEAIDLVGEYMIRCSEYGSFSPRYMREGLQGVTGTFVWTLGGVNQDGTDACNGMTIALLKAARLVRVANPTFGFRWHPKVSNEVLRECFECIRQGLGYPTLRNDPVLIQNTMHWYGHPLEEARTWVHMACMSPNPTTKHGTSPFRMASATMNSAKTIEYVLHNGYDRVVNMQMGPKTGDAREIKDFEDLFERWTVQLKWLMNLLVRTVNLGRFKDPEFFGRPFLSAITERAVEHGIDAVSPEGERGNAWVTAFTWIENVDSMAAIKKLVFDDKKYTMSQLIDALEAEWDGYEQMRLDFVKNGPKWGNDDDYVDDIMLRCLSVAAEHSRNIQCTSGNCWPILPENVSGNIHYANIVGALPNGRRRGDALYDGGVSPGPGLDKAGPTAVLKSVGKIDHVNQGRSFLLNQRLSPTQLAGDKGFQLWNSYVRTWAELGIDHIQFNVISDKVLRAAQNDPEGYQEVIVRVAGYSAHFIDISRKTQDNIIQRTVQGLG
T1 sequence (A9J4K2 1-61 partner): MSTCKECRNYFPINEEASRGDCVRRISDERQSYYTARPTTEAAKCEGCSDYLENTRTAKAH
T1 sequence (A9J4K0 1-120 partner): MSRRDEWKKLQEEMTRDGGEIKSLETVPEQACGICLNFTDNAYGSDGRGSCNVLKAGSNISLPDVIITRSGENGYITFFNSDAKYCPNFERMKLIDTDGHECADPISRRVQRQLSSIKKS
T1 sequence (A9J4K6 1-71 partner): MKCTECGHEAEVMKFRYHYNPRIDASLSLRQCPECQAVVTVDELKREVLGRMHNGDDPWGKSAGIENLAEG

stoichiometry N [2]	Molecule	cryo-EM structure of the complex, 2.8 Å [1]
	O=C(O)/C=C/C(=O)O [fumarate]	Density was observed for fumarate in a similar location as was observed for the fumarate
2	(1-methylalkyl)succinate synthase catalytic α-subunit (MASSα), protein product of masD (enzyme)	
